How the values were obtained:
[1] = Solubility in solvents; assay type: physicochemical
[2] = Stability in solution (HPLC analysis); assay type: physicochemical; conditions: for amount reduced after incubation: aqueous solution, 52° C., 4 h; for stability in solutions: water, MeOH, DMSO
Text: The structures of 1 and 2 are similar to the structure of a known pyroglutamyl peptidase inhibitor pyrizinostatin. Pyrizinostatin has the same two-ring system (compound 3) but with a ketone side chain. Both 1 and 2 are optically active. It is possible that 1 and 2 are enantioselectively synthesized by the microorganism starting from 3 and 5. […] Upon storage, and during the isolation and purification process, decomposition predominates. […] The formation of 3 was evidenced by HPLC analysis.

[3] = system: PTP; test: Bioassay for PTP inhibitory activity; assay type: biochemical; conditions: for PTP inhibitory activity after prolonged storage of solution: TFA salt solution after prolonged storage; for PTP inhibitory activity of fresh solution: TFA salt, amount of 3 below 1 mole %; for PTP inhibitory activity in bioassay: isolated material, 1 and 2 contaminated with about 6-10% of 3; for effect on in vitro activity of the PTPs tested: 1 μM, receptor and non-receptor PTPs
Protocol: HTS for inhibitory activity towards PTPα was performed in 96 well plates (Nunclon). Dephosphorylation of the substrate (pNPP) was measured in 180 μL reactions/well in assay buffer containing 50 mM sodium acetate (pH 5.5), 0.5 mg/mL BSA and 0.5 mM dithiothreitol. The purified enzyme PTPα (0.3 μg/well) and extracts (5 μL in 50% methanol) were preincubated for 5–10 min at room temperature in a volume of 170 μl. Reactions were initiated by adding 10 μL of substrate in assay buffer to a final concentration of 2 mM. For each plate, 6 reference control wells containing PTPα were preincubated with 5 μL 50% methanol at the same time as the test samples. As a positive control for PTPα inhibition, 1 μM Na3VO4, a potent inhibitor of PTPs, was added to some wells. Blank wells contained 5 μL 50% methanol, 2 mM pNPP in assay buffer and no enzyme. For each set of experiments (from 2–5 plates), reference controls in a separate plate were read at different time points to check the linearity of the reaction. Reactions were stopped with 25 μL KH2PO4 after 45–60 mins incubation at room temperature. The plates were read immediately in a multilabel counter (Wallac 1420 Victor). The OD405 of the reference wells ranged between 0.7–1.2, which represents <10% conversion of the substrate and falls within the linear part of the reaction. Percentage inhibition was determined using the formula: % Inhibition=[{(OD ref−OD blank)−(OD test−OD blank)}/(OD ref−OD blank)]×100 Phosphatase Assay: […]

[4] = system: Curvualaria sp.; test: Antimicrobial activity, Curvualaria sp.; assay type: cell-based; conditions: 50 μM or 100 μM
[5] = system: Enterococcus faecalis; test: Antimicrobial activity, Enterococcus faecalis; assay type: cell-based; conditions: 50 μM or 100 μM
[6] = system: Escherichia coli; test: Antimicrobial activity, Escherichia coli; assay type: cell-based; conditions: 50 μM or 100 μM
[7] = system: Candida albicans; test: Antimicrobial activity, Candida albicans; assay type: cell-based; conditions: 50 μM or 100 μM
[8] = system: Pseudomonas aeruginosa; test: Antimicrobial activity, Pseudomonas aeruginosa; assay type: cell-based; conditions: 50 μM or 100 μM
[9] = system: Staphylococcus aureus; test: Antimicrobial activity, Staphylococcus aureus; assay type: cell-based; conditions: 50 μM or 100 μM
[10] = target: εD1D2 (Homo sapiens, UniProt P23469); test: Phosphatase assay (pNPP dephosphorylation), PTPε D1D2; conditions: for percentage activity of εD1D2 relative to control: 1 μM compound, phosphatase 1.0 nM, pNPP, average of three enzyme preparations ± S.D.
εD1D2, sequence (P23469 70-700 limits assumed): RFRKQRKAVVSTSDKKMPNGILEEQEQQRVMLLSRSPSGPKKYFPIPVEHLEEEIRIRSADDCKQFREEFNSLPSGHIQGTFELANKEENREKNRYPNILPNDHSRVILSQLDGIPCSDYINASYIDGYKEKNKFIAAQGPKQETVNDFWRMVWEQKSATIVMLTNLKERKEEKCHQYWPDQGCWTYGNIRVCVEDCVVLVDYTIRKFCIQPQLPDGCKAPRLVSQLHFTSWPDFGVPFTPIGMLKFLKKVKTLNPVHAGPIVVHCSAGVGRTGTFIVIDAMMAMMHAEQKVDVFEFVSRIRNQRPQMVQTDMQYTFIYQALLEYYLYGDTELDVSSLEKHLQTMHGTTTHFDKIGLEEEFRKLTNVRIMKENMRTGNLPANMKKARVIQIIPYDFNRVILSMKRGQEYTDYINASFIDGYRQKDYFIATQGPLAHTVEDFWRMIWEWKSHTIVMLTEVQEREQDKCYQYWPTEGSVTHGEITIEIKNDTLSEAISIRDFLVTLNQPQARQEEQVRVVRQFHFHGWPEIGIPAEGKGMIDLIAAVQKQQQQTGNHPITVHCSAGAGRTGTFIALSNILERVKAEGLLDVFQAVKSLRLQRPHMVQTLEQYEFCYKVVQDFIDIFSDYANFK

[11] = target: αD1D2 (Homo sapiens, UniProt P18433); test: Phosphatase assay (pNPP dephosphorylation), PTPα D1D2; conditions: for percentage activity of αD1D2 relative to control: 1 μM compound, phosphatase 5.0 nM, pNPP, average of three enzyme preparations ± S.D.
αD1D2, sequence (P18433 175-802): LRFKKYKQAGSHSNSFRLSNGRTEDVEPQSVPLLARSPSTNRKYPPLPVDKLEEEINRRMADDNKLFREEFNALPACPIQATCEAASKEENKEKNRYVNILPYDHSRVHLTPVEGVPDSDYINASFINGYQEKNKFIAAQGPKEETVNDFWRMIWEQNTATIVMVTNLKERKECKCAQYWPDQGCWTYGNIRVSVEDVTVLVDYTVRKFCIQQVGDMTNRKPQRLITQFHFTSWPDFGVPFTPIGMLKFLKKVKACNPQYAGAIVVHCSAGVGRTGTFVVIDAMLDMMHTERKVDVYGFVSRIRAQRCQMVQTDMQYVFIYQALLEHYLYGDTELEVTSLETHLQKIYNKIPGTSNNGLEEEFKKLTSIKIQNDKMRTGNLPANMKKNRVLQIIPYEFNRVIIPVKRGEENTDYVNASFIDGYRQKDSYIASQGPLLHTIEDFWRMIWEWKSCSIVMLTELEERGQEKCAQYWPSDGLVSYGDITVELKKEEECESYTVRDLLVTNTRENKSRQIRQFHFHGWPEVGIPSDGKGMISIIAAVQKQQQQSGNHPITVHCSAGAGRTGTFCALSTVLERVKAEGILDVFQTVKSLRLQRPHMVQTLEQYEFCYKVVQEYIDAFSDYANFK

[12] = system: Mycobacterium smegmatis; test: Antimicrobial activity, Mycobacterium smegmatis; assay type: cell-based; conditions: 50 μM or 100 μM
[13] = target: T1, CD45 (Homo sapiens, UniProt P08575); test: Phosphatase assay (pNPP dephosphorylation), CD45; conditions: for percentage activity of CD45 relative to control: 1 μM compound, phosphatase 1.0 nM, pNPP, average of three enzyme preparations ± S.D.
T1 sequence (P08575 599-1306 limits assumed): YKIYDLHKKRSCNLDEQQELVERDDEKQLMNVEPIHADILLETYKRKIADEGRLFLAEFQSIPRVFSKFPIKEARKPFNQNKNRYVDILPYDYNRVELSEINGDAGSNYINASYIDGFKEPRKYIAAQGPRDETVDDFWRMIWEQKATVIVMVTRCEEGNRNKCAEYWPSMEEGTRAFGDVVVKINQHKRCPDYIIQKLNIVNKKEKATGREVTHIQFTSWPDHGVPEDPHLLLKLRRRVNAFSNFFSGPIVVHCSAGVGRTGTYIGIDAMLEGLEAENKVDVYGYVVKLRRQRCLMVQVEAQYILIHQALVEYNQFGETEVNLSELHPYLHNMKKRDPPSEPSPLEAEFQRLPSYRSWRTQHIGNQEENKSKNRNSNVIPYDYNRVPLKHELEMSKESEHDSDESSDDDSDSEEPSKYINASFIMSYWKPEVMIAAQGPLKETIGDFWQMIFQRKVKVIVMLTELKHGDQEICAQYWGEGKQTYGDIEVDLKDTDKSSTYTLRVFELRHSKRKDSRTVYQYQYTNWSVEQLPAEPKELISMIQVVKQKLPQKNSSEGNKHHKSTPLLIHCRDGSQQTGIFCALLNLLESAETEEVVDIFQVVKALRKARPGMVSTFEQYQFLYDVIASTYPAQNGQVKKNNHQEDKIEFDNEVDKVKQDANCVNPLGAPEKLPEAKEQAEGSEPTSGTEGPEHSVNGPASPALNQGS

[14] = target: T2, λPP (Escherichia phage lambda, UniProt P03772); test: Phosphatase assay (pNPP dephosphorylation), λPP; conditions: for percentage activity of λPP relative to control: 1 μM compound, phosphatase 5.0 nM, pNPP, average of three enzyme preparations ± S.D.
T2 sequence (P03772 1-221): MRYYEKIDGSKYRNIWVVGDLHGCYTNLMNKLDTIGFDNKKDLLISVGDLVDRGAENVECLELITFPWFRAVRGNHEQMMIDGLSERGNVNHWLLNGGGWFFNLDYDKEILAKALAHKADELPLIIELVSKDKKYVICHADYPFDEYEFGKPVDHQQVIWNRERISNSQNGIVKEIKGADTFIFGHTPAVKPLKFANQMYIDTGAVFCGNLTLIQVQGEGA

[15] = system: CIP; test: Phosphatase assay (pNPP dephosphorylation, pH 7), CIP; conditions: for percentage activity of CIP relative to control: 1 μM compound, phosphatase 0.5 nM, pNPP, pH 7, average of three enzyme preparations ± S.D.; for effect on pNPP phosphatase activity of CIP: neutral pH
[16] = target: T3, TCPTP (Homo sapiens, UniProt P17706); test: Phosphatase assay (pNPP dephosphorylation), TCPTP; conditions: for percentage activity of TCPTP relative to control: 1 μM compound, phosphatase 1.0 nM, pNPP, average of three enzyme preparations ± S.D.
T3 sequence (P17706 1-317 limits assumed): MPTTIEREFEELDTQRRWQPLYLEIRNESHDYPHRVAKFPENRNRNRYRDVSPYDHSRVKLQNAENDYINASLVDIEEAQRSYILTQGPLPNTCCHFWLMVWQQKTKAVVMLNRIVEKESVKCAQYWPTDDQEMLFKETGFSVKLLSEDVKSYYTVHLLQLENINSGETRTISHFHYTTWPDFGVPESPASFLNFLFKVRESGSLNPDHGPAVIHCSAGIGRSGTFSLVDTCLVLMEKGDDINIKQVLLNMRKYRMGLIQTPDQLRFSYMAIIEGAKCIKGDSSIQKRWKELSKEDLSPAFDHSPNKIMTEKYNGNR

[17] = system: Proteus vulgaris; test: Antimicrobial activity, Proteus vulgaris; assay type: cell-based; conditions: 50 μM or 100 μM
[18] = target: T4, LAR-D1 (Homo sapiens, UniProt P10586); test: Phosphatase assay (pNPP dephosphorylation), LAR-D1; conditions: for percentage activity of LAR-D1 relative to control: 1 μM compound, phosphatase 5.0 nM, pNPP, average of three enzyme preparations ± S.D.
T4 sequence (P10586 1352-1607 limits assumed): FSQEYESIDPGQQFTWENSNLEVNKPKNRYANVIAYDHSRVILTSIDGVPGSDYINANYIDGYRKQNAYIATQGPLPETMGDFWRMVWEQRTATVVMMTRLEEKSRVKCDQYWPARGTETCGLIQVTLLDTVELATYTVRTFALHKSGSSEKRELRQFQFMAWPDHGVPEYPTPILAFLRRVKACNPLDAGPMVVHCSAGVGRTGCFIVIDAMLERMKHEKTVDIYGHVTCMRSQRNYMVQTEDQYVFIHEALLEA

solubility in DMSO, methanol and water [1]	solubility in dichloromethane, chloroform and hexanes [1]	amount reduced after incubation [2] [%]	stability in solutions [2]	SMILES	PTP inhibitory activity after prolonged storage of solution [3]	PTP inhibitory activity of fresh solution [3]	PTP inhibitory activity in bioassay [3]	percentage activity of εD1D2 relative to control [10] [%]	percentage activity of αD1D2 relative to control [11] [%]	percentage activity of CD45 relative to control [13] [%]	percentage activity of λPP relative to control [14] [%]	percentage activity of CIP relative to control [15] [%]	effect on pNPP phosphatase activity of CIP [15]	percentage activity of TCPTP relative to control [16] [%]	effect on in vitro activity of the PTPs tested [3]	percentage activity of LAR-D1 relative to control [18] [%]	other results
soluble	insoluble	85	unstable	CN1N=C2N(C)C(=O)N(C)C(=O)C2(C2NC(N)=NC2=O)NC1=O (single isomer, unassigned) [Compound 2, 4a-(2-amino-5-oxo-4,5-dihydro-3H-imidazol-4-yl)-2,4,4a,8-tetrahydro-2,6,8-trimethyl-pyrimido[5,4-e]-1,2,4-triazine-3,5,7(6H)-trione]	became active	inactive	much weaker inhibitors	–	–	–	–	–	–	–	–	–	–
–	–	–	–	Cn1nc2c(nc1=O)c(=O)n(C)c(=O)n2C [Compound 3, 2,8-dihydro-2,6,8-trimethyl-pyrimido[5,4-e]-1,2,4-triazine-3,5,7(6H)-trione]	–	–	potent PTP inhibitor	17 ± 4.0	17 ± 1.1	15 ± 2.5	48 ± 2.0	100 ± 1.0	neither compound had any detectable effect	34 ± 1.0	inhibited all the PTPs tested	17 ± 2.0	antimicrobial activity against Curvualaria sp. [4]: no antimicrobial activity; antimicrobial activity against Enterococcus faecalis [5]: no antimicrobial activity; antimicrobial activity against Escherichia coli [6]: no antimicrobial activity; antimicrobial activity against Candida albicans [7]: no antimicrobial activity; antimicrobial activity against Pseudomonas aeruginosa [8]: no antimicrobial activity; antimicrobial activity against Staphylococcus aureus [9]: no antimicrobial activity; inhibition at 1 µM ([10]; read-out: inhibition of εD1D2): 83 to 85%; PTP inhibition of αD1D2 at neutral pH ([11]; neutral pH, results not shown): continues to behave as a PTP inhibitor; inhibition at 1 µM ([11]; read-out: inhibition of αD1D2): 83 to 85%; antimicrobial activity against Mycobacterium smegmatis [12]: no antimicrobial activity; inhibition at 1 µM ([13]; read-out: inhibition of CD45): 83 to 85%; inhibition at 1 µM ([14]; read-out: inhibition of λPP activity): ~50%; inhibition at 1 µM ([16]; read-out: inhibition of TC-PTP): ~65%; antimicrobial activity against Proteus vulgaris [17]: no antimicrobial activity; inhibition at 1 µM ([18]; read-out: inhibition of LAR-D1): 83 to 85%
soluble	insoluble	62	unstable	CN1N=C2N(C)C(=O)N(C)C(=O)C2(C2NC(N)=NC2=O)NC1=O (single isomer, unassigned) [Compound 1, 4a-(2-amino-5-oxo-4,5-dihydro-3H-imidazol-4-yl)-2,4,4a,8-tetrahydro-2,6,8-trimethyl-pyrimido[5,4-e]-1,2,4-triazine-3,5,7(6H)-trione]	became active	inactive	much weaker inhibitors	–	–	–	–	–	–	–	–	–	–
–	–	–	–	Cn1nc2c(nc1=O)n(C)c(=O)n2C [Compound 4, 2,5,7-trimethyl-2,7-dihydro-5H-imidazo[4,5-e]-1,2,4-triazine-3,6-dione]	–	–	–	99 ± 1.0	98 ± 0.5	96 ± 1.0	100 ± 6.0	99 ± 4.0	neither compound had any detectable effect	99 ± 2.0	negligible effects	97 ± 1.5	effect on λPP activity ([14]; 1 μM): unaffected
–	–	–	–	[Na+].[Na+].[Na+].[O]=[V]([O-])([O-])[O-] [Na3VO4, sodium orthovanadate, reference compound]	–	–	–	18 ± 2.0	24 ± 1.5	14 ± 0.5	49 ± 3.0	98 ± 3.0	lack of effect	31 ± 5.0	–	26 ± 1.0	–

Reference: patent US7199121B2, “Protein tyrosine phosphatase inhibitor” (Institute of Molecular and Cell Biology, priority 2000, dated 2007)
